# Reference: patent publication US6833478B2 (priority 2001, dated 2004)
# Structures can show the parent of a compound that is named as a salt.
# Assay: Volume of water needed to dissolve
# Format: physicochemical
# Conditions: 1 mmole (782 mg)
# Source text: Evidently, dinitramide ion quenches the fluorescence of protonated quinine.
compound,measurement,value
C=C[C@H]1C[N@@]2CC[C@H]1C[C@H]2[C@H](O)c1ccnc2ccc(OC)cc12 [quinine sulfate],water required to dissolve,900 mL
